Here are results for three compounds from patent US12129265B2, “Therapeutic agents and uses thereof” (Ankh Life Sciences Limited, priority 2020, dated 2024).

Values after ≈ are worked out from the molar mass of the structure shown. Read-outs that look alike come from different tables or passages of the source.

One data set concerns MiaPaCa-2 cells. Put plainly: Cell colony formation assay, Example 16. Format: cell-based, human. As to the method: (§1) In this example, the 560 and 562 compounds of Examples 12 and 14, respectively, were tested using cell colony formation assays. 500 viable S2-007 and MiaCaPa-2 cells were plated in six-well dishes and allowed to grow for 24 hours. The cells were then incubated in the presence or absence of the 560 and 562 compounds for 72 hours. The compound-containing media were then removed, and the cells were washed in PBS and incubated for an additional 10 days in complete media. The resultant colonies were then washed in PBS and fixed using 10% formalin for 10 minutes at room temperature, followed by washing with PBS and staining with Crystal Violet. The colonies of the control and compound-supplemented assays were then counted and compared.

Another data set has as its system S2-007 cells. Nature of the data set: Cell colony formation assay, Example 16. The class given is cell-based, human. The conditions noted are these: 4 μg and 6 μg, 24, 48, and 72 hours, FIG. 123. How it is done:
as §1

The test system of data set [1] is Human Myeloma, Human Lymphoma, Solid Human tumor and Jeko-1 tumor cell lines. Put plainly: CellTiter-Glo in vitro cell proliferation assay, Example 8, whole panel. The class given is cell-based. Conditions: for IC50 values compared with the monoharmaline 518F014 compound: 72 hours, cell lines of Table 14. How it is done:
In this Example, in vitro cell proliferation assays were performed using: (1) Human Myeloma tumor cell lines; (2) Human Lymphoma tumor cell lines; (3) Solid Human tumor cell lines; and (4) Parental, Lenalidomide resistant and Bortezomib resistant Jeko-1 Mantle cell Lymphoma tumor cell lines. The compounds tested were three diharmaline compounds, namely the 518B562 (or simply 562), 560, and 561 compounds. In addition, a monoharmaline product designated as 518F014 was also tested. This monoharmaline product had the following structure:
Each proliferation assay was carried out as follows. The test cells were plated in growth media using a 384-well microtiter plate at 50 μL volume. The cells were incubated for 24 hours at 37° C. in a humidified incubator. After 24 hours of incubation, the test compounds were added to the test wells in DSMO solvent, at concentrations ranging from 0.0075-100 μM. Control wells received equal volumes of DSMO, without compound. Following drugging, the cells were incubated for 72 hours at 37° C. in a humidified incubator. After this exposure, 100 μL of a 1:1 mixture of sterile water and CellTiter-Glo® reagent (Promega) was added to each well. The plates were then incubated for 60 minutes at room temperature, followed by recording the luminescence value of each well using a luminometer as a measure of cell proliferation.

In another data set the test system is OCI-LY3 cells. Nature of the data set: CellTiter-Glo in vitro cell proliferation assay, Example 8. Format: cell-based, Human. The conditions noted are these: Homo sapiens, OCI-LY3, Diffuse Large B-Cell Lymphoma. The essentials:
(§2)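 72 h continuous exposure, 37 °C, humidified; conc. 0.0075–100 μM (DMSO); CellTiter-Glo luminescence, 60 min RT incubation before read.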
On the technique in general: In ATP-based viability assays light output follows the ATP content of the culture.

The next data set has as its system BxPC-3 cells. The description is as above. The class given is cell-based, Human. The conditions noted are these: Homo sapiens, BxPC-3, Pancreatic. The essentials:
as §2

A further data set concerns MOLP-8 cells. Described as above. Format: cell-based, Human. In a few lines: as §2
A further data set deals with A2780CP cells. The description is as above. The class given is cell-based, Human. Conditions: Homo sapiens, A2780C/P. The essentials:
as §2

Another data set concerns H1650 (EGFR mut) cells. The description is as above. The class given is cell-based, Human. The conditions noted are these: Homo sapiens. The essentials:
as §2

The test system of another data set is KMS-27 cells. Described as above. Format: cell-based, Human. In a few lines: as §2
The test system of a further data set is Jeko-1 Parental cells. The data set is described as above. The class given is cell-based. The conditions noted are these: Homo sapiens, Mantle Cell Lymphoma, 72 hours. The essentials: as §2
The subject of data set [2] is Jeko-1 Lenalidomide resistant cells. Described as above. The class given is cell-based. The conditions noted are these: Homo sapiens, Mantle Cell Lymphoma, 72 hours. The essentials: as §2
Data set [3] relates to Jeko-1 Bortezomib resistant cells. The data set is described as above. Format: cell-based. Conditions: Homo sapiens, Mantle Cell Lymphoma, 72 hours. The essentials:
as §2

For data set [4], the system named is S2-007 pancreatic cancer cells. Put plainly: Proliferation assay, Example 10. The class given is cell-based, human. How it is done:
(§3) In this Example, pancreatic cancer cells (S2-007 and Mia-PaCa2) were treated with the previously described compound 518B562 at different times and concentrations, followed by generation of proliferation assays using the techniques described above. […] After 72 hours of treatment, the IC50 values of the compound against S2-007 and Mia-PaCa2 cells was determined as 3 μg/mL and 5 μg/mL, respectively.

The test system of data set [5] is Mia-PaCa2 pancreatic cancer cells. Nature of the data set: Proliferation assay, Example 10. Format: cell-based, human. How it is done:
as §3

Data set [6] is described as follows: Solubility observation on acid addition. Format: physicochemical. Conditions: addition of an acid such as hydrochloric acid to reduce the pH of the product. How it is done: The 518B562 compound was prepared by mixing together particulate harmaline and vanillin at a weight ratio of about 2:1 (vanillin:harmaline), followed by adding ethanol to a final concentration of the reactions of from about 10-100 mg/mL. This mixture is then allowed to sit for approximately 3 days at 50° C. A bluish solid forms, which is filtered and washed with methanol, and recovered.

The subject of data set [7] is gene expression in S2-007 human pancreatic cancer cells. Nature of the data set: RNA-Seq clustergram/heat map of cancer stem cell markers, Example 11. The class given is cell-based. The conditions noted are these: 5 micro-g/mL. How it is done: In this Example, a clustergram/heat map of RNA sequences for cancer stem cell (CSC) markers was performed before and after treatment of S2-007 human pancreatic cancer cells with 518B562. This experiment was conducted using a Whole Transcriptome Shotgun Sequence (WTSS), followed by bioinformatics data analysis of CSC markers. An RNA-Seq/heat map was generated to obtain a genome-wide gene expression profile of the pancreatic cancer cells.
One sample of the pancreatic cancer cell line was untreated, while an identical sample was treated with 5 micro-g/mL of 518B562. Comparative RNA sequences were performed on the samples using an Illumina HISeq 2500 sequencer at a 100 bp single read resolution. The sequence readings were mapped to the human genome (assembly GRCh38.re177) using the STAR software (Dobin et al. 2012). Transcript abundance estimates were generated using the Cufflinks software (Trapnell et al. 2010) and differential gene expression estimates were calculated using the Cuffdiff software (Trapnell et al. 2013). RNA-Seq generated around […], of which between 97.2% and 98.3% of the reads mapped to the reference genome.

[8] abbreviates: MOLP-8, Human Myeloma, 72 hours, read-out: Mean IC50.
Where [9] appears, read: Ovarian, 72 hours, read-out: Mean IC50.
[10] abbreviates: NCI-H1650, Non Small Cell Lung, 72 hours, read-out: Mean IC50.
The mark [11] stands for this setting: KMS-27, Human Myeloma, 72 hours, read-out: Mean IC50.
The mark [12] stands for this setting: doses of 1-25 μg/mL, time-dependent, 24-72 hours.

In the case of `COc1ccc2c3c([nH]c2c1)C(CC(CC1=NCCc2c1[nH]c1cc(OC)ccc21)c1ccccc1)=NCC3` [compound 560], the colony formation entry in the data set on MiaPaCa-2 cells (3 μg and 5 μg, 24, 48, and 72 hours, FIG. 124) is listed as “significantly disrupted colony formation at both levels of use”; in the data set on S2-007 cells, “significantly disrupted colony formation, particularly at the 6 μg level of use”. In addition, the “IC50 values compared with the monoharmaline 518F014 compound” value in data set [1] is “significantly lower IC50 values”. The IC50 amounted to 2870 nM in the data set with OCI-LY3 cells (72 hours, read-out: Mean IC50); 2620 nM in the data set with BxPC-3 cells (72 hours, read-out: Mean IC50); 2890 nM in the data set on MOLP-8 cells (setting [8]); 4400 nM in the data set with A2780CP cells (setting [9]); 2950 nM in the data set with H1650 (EGFR mut) cells (setting [10]); 3940 nM with KMS-27 cells (setting [11]). Besides, the figures for the IC50 (in the data set with Jeko-1 Parental cells; in data set [2]; in [3]) were 4700 nM, 5070 nM and 4080 nM, respectively.
For `COc1ccc2c3c([nH]c2c1)C(CC(CC1=NCCc2c1[nH]c1cc(OC)ccc21)c1ccc(O)c(OC)c1)=NCC3` [compound 562], the IC50 in [4] (Homo sapiens, Pancreatic cancer cell, after 72 hours of treatment) was 3 µg/mL (≈ 5.33 µM); in data set [5] (Homo sapiens, MIA PaCa-2, after 72 hours of treatment), 5 µg/mL (≈ 8.89 µM); in the data set with OCI-LY3 cells (72 hours, read-out: Mean IC50), 2380 nM; with BxPC-3 cells (72 hours, read-out: Mean IC50), 1600 nM; in the data set on MOLP-8 cells (setting [8]), 1380 nM; in the data set on A2780CP cells (setting [9]) it was 2280 nM. Besides, the IC50 with H1650 (EGFR mut) cells (setting [10]) was determined as 2300 nM; with KMS-27 cells (setting [11]) it was 2100 nM; in the data set with Jeko-1 Parental cells, 4400 nM; in data set [2], 6190 nM; in data set [3], 4810 nM. Besides, the inhibition of proliferation result in [4] (setting [12]) and in data set [5] (setting [12]) was “significantly inhibited the proliferation” each time. The colony formation entry with MiaPaCa-2 cells (3 μg, 7 μg, 10 μg, and 12 μg, 24, 48, and 72 hours, FIG. 127) is “significantly disrupted colony formation, particularly at the higher levels of use”. Moreover, in data set [1], the “IC50 values compared with the monoharmaline 518F014 compound” value is reported as “significantly lower IC50 values”. Also, in data set [6], the solubility entry is recorded as “increased the solubility thereof”. Further, the “angiogenesis markers [OXTR, SYCP2, CRHR1, SPEG]” value in data set [7] is listed as “down-regulated”. The “anti-apoptotic markers [TUG1, FABP1, PI3, DOKS]” value in [7] is recorded as “down-regulated”. Besides, in data set [7], the “anti-proliferative markers [NRP1, ATF2A, CYP1b1, ALPP, DEPTOR, MT1F]” value is “up-regulated”. For the same compound, the “apoptotic markers [ICAM5, WNK4, ALPP, LTRC26, SHBG, MT1X]” value in [7] is recorded as “up-regulated”. Moreover, in data set [7], the “proliferation signaling markers [FOXj1, SPP1, C3]” value is on record as “down-regulated”.
As to `COc1ccc2c3c([nH]c2c1)C(CC(CC1=NCCc2c1[nH]c1cc(OC)ccc21)c1cccc(Oc2ccccc2)c1)=NCC3` [compound 594, diharmaline 3-phenoxybenzaldehyde], the “effectiveness in cell proliferation assays” value in data set [1] (cell lines of Table 16) is on record as “effective against a wide variety of cancer cells”. Besides, the IC50 in the data set on OCI-LY3 cells (Example 24, read-out: Mean) worked out at 5.7 µg/mL; in the data set with OCI-LY3 cells (Example 24, read-out: Trial A), 3.87 µg/mL; with OCI-LY3 cells (Example 24, read-out: Trial B), 7.54 µg/mL; in the data set on BxPC-3 cells (Example 24, read-out: Mean), 3.39 µg/mL; in the data set with BxPC-3 cells (Example 24, read-out: Trial A) it was 3.45 µg/mL; with BxPC-3 cells (Example 24, read-out: Trial B), 3.33 µg/mL. Also, the IC50 was 2.72 µg/mL in the data set with MOLP-8 cells (Example 24, MOLP-8, human myeloma, read-out: Mean); 2.73 µg/mL in the data set with MOLP-8 cells (Example 24, MOLP-8, human myeloma, read-out: Trial A); 2.7 µg/mL in the data set on MOLP-8 cells (Example 24, MOLP-8, human myeloma, read-out: Trial B); 3.27 µg/mL in the data set with A2780CP cells (Example 24, Ovarian, read-out: Mean); 3.57 µg/mL in the data set on A2780CP cells (Example 24, Ovarian, read-out: Trial A); 2.96 µg/mL in the data set with A2780CP cells (Example 24, Ovarian, read-out: Trial B). Moreover, the IC50 with H1650 (EGFR mut) cells (NCI-H1650, Example 24, Non Small Cell Lung, read-out: Mean) is 2.58 µg/mL; in the data set on H1650 (EGFR mut) cells (NCI-H1650, Example 24, Non Small Cell Lung, read-out: Trial A) it was 2.61 µg/mL; in the data set on H1650 (EGFR mut) cells (NCI-H1650, Example 24, Non Small Cell Lung, read-out: Trial B), 2.55 µg/mL; with KMS-27 cells (Example 24, KMS-27, human myeloma, read-out: Mean) it was 4.14 µg/mL; in the data set with KMS-27 cells (Example 24, KMS-27, human myeloma, read-out: Trial A), 5.54 µg/mL; in the data set with KMS-27 cells (Example 24, KMS-27, human myeloma, read-out: Trial B), 2.73 µg/mL.
